The subject of assay [1] is NARF2 cells. The assay can be described thus: Rescue of FMN2 depletion by co-transfection of siRNAs, Western blot (FIG. 14). The following applies: co-transfection of both PA28γ siRNA and Skp2 siRNA with FMN2 siRNA, with/without p14ARF induction. Format: cell-based, human. Here is the method:
(§1) siRNA experiments. siRNA duplex oligo ribonucleotides were synthesised by MWG and transfected using Interferin (Polyplus) as per manufacturers instruction. In brief, cells were plated the day before transfection at the concentration of 2×10^5 cells per well in 6 well plates. The following day, cells were transfected with the final concentration of 5 nM of siRNA oligoribonucleotides in fresh media, final volume of 2.2 ml. Cells were incubated for a further 48 hours prior to harvesting. IPTG was added for 24 hours unless otherwise stated. siRNA sequences are described here (Control: 5′-CAGUCGCGUUUGCGACUGG-3′, FMN2-5′-GUAUACCAGGUCUCCUCAA-3′, PA28γ-5′-GAAUCAAUAUGUCACUCUA-3′, Skp2-5′-ACUCAAGUCCAGCCAUAAG-3′).).
FIG. 14. […] Detection of protein levels for endogenous FMN2, Skp2, PA28G, p21, p14ARF and Actin following transfection of NARF2 cells using either siRNAs for FMN2 (see FIG. 15A for location of siRNA target sequence), PA28γ, Skp2 and control (Control) with/without p14ARF induction (+/blank). An equivalent amount of NARF2 extract was loaded for each lane and the proteins separated by SDS PAGE, electroblotted and probed both with a monoclonal anti-PA28γ and polyclonal anti-FMN2, anti-Skp2, anti-p21, anti-p14ARF and with anti-Actin as a loading control.
A general note: Immunoblotting shows a protein as a band on a membrane.

In assay [2] the test system is NARF2 cells. The assay can be described thus: siRNA knock-down in NARF2 cells, protein levels by blot (FIG. 10). Format: cell-based, human. The settings on record: 5 nM siRNA, 48 hours, with or without 24 hours IPTG. Here is the method:
FIG. 10. siRNA approach for FMN2. NARF2 cells were treated with Control, DNA-PK, or FMN2 siRNA and harvested 48 hours with or without 24 hours IPTG induction.
siRNA duplex oligonucleotides were synthesised by MWG and transfected using Interferin (Polyplus) as per manufacturers instruction. In brief, cells were plated the day before transfection at the concentration of 2×10^5 cells per well in 6 well plates. The following day, cells were transfected with the final concentration of 5 nM of siRNA oligonucleotides in fresh media, final volume of 2.2 ml. Cells were incubated for additional 48 hours prior to harvesting. IPTG was added for 24 hours unless otherwise stated. siRNA sequences were described here (Control: CAGUCGCGUUUGCGACUGG, FMN2-GUAUACCAGGUCUCCUCAA). MG132 was purchased from Merck Chemicals and used at the final concentration of 50 μM.
To analyse the function of the FMN2 protein in cells, we designed five siRNAs to suppress FMN2 expression. […] (FIG. 10a). […] In contrast, siRNA knock-down of DNA-PK causes a decrease in the levels of both puma and p21 (FIG. 10b).
as §1

The results in this text go back to patent publication US20120082684A1, “DIAGNOSIS AND TREATMENT OF CELL PROLIFERATION AND DIFFERENTIATION DISORDERS BASED ON THE FMN2 GENE” (UNIVERSITY COURT OF THE UNIVERSITY OF DUNDEE, priority 2009, published 2012).

Take 5′-GAAUCAAUAUGUCACUCUA-3′ [PA28γ siRNA]: the “rescue of p21 inactivation following FMN2 depletion” value in the assay with NARF2 cells [1] was “partially rescued”.
As to 5′-GUAUACCAGGUCUCCUCAA-3′ [FMN2 siRNA], in the assay with NARF2 cells [2], the “FMN2 expression after siRNA” value is given as “successful in suppressing FMN2 expression”, the “effect on Hdm2” value is “didn't see any effect”, the “effect on p53” value is “didn't see any effect” and the p21 level result is on record as “severely reduced”. Also, in the assay with NARF2 cells [2], the puma level result is “does not affect puma levels”.
Take 5′-ACUCAAGUCCAGCCAUAAG-3′ [Skp2 siRNA]: in the assay on NARF2 cells [1], the “rescue of p21 inactivation following FMN2 depletion” value is listed as “partially rescued”.
